Assay results as given in paper PMC3935398 (2014).

Test system: Streptococcus mutans (Smu) THF riboswitch aptamer (RNA, riboswitch) GGAGAGUAGAUGAUUCGCGUUAAGUGUGUGUGAAUGGGAUGUCGUCACACAACGAAGCGAGAGCGCGGUGAAUCAUUGCAUCCGCUCCA
Assay: ITC
Conditions: 70 mM NaCl, 2.5 mM MgCl2, 70 mM Na-HEPES pH 8.0, 1 mM DTT, 37 °C

SMILES | KD [µM] | KD (PK site only) [µM]
Nc1ncnc2[nH]cnc12 | 8 ± 1 | 
Nc1ncc2[nH]cnc2n1 | 26 ± 3 | 
Nc1nc(N)c2[nH]cnc2n1 |  | 0.5 ± 0.1
Nc1nc2c(N)ncnc2[nH]1 | 160 ± 20 | 
